Reference: patent US4410525A, “Alkoxy pyrazole derivatives and compositions” (Establissements Nativelle S.A., priority 1981, dated 1983)
Like-named read-outs stand apart in the source and are kept apart here.

Columns and labels:
[1] = Acute toxicity (lethal dose 50) in the mouse; conditions: in vivo, oral (P.O.), 5 males and 5 females per dose, read-out: LD 50 P.O.
From the text: The acute toxicity of the deriatives of the invention were studied by oral administration (P.O) to the mouse (10 animals, 5 males and 5 females per dose) and calculation of the lethal dose 50 (LD 50) in accordance with the method of Litchfield and Wilcoxon (J. Pharmacol., 96, 99-113 (1949)). Table 1 gives the LD 50 values of the derivatives of the invention.
In certain cases, the LD 50 was also studied after intraperitoneal injection (I.P.) of the derivatives.

[2] = tested on: anoxic ventricular fibrillation in mice; experiment: Cardiac antifibrillatory activity on the mouse (Lawson test); type: in vivo; conditions: ip, intraperitoneal, 10 minutes before chloroform, read-out: ED 50 (protects half the mice against anoxic ventricular fibrillation)
Protocol: Cardiac antifibrillatory activity of the derivatives of the invention has been verified on the mouse using the Lawson test, in accordance with the method described by J. W. Lawson, J. Pharmacol. Exp. Therp. 160, 22-31 (1968), and C. Narcisse et al., Ann. Pharm. Fr. 37, 325-330 (1979).
The mice (20 per dose) received an intraperitoneal injection of the derivative 10 minutes before being placed in a chloroform saturated atmosphere. As soon as respiratory arrest occurred, the thorax was opened (5 to 10 seconds) and the state of the heart was checked: presence or absence of ventricular fibrillation. The efficacy dose 50 (ED 50) of the derivative being studied is the dose which protects half the mice against anoxic ventricular fibrillation.

anesthetized dog = experiment: Hemodynamic effects on the anesthetized dog; type: in vivo; conditions: i.v.; for (dp/dt)l/p, percentage of variation / Cardiac flow, percentage of variation / Cardiac frequency, percentage of variation / Contraction force of the myocardium, percentage of variation / Systolic arterial pressure, percentage of variation / Systolic volume, percentage of variation: Example 4 series, vs pretreatment; for Cardiac frequency (result in words) / Systolic arterial pressure (result in words) / force of ventricular myocardiac contractions (result in words) / cumulative dose at which a 20% drop of cardiac flow is reached: anesthetized dog
Protocol: Cardiovascular tolerance was studied on the isolated guinea pig auricle, on the anesthetized rat and on the anesthetized dog.
On the anesthetized dog, the results obtained with respect to hemodynamic tolerance are summarized in Table 2 below which indicates the percentages of variation of the hemodynamic parameters in relation to the pre-treatment control period for the derivatives of Examples 2 and 4.
The parameters were recorded by means of:
Catheters connected to pressure sensors (arterial pressure, left ventricular pressure and its first derivative dp/dt);
Electromagnetic flowmeter on the aorta (aortic flow);
Strain gauge placed on the left ventricular myocardium (force of myocardiac contraction).
The derivatives were injected intraveneously, one dose approximately every 30 minutes and their effects were measured 20 minutes after the completion of the injection (length of the injection 2 minutes).

[3] = tested on: ventricular arrhythmias induced by aconitine in the anesthetized rat; experiment: Antiarrhythmic test with aconitine on the rat; type: in vivo
Protocol: The derivatives of the invention were used in the test with aconitine on the rat. For this test, the anesthetized rat was intoxicated by an intravenous perfusion of aconitine (solution of aconitine nitrate: 15 mg/l; speed of perfusion: 0.4 ml/min) while its electrocardiogram was recorded permanently. During perfusion at constant speed, the time necessary for the appearance of ventricular arrhythmias, successively ventricular extrasystoles (ESV), ventricular tachycardium (TV) and ventricular fibrillation (FV) was measured.
The animals were divided into a control group (untreated) and treated group (different doses). The results are expressed as a percentage of prolonging the time of the appearance of the arrhythmias in the treated groups in relation to the control group. This prolongation of arrhythmia appearance time therefore corresponds to myocardiac protection against the arrhythmic effects of aconitine.

rabbit cornea = experiment: Local contact anesthesia on the rabbit cornea; type: in vivo; conditions: solution at 0.25% or 1% by weight, eyewash instillation
From the text: For example, the derivatives described in Examples 2, 3, 4, 6, 7 and 9 are local anesthetics (100% anesthesia) in a solution at 0.25% or 1% by weight.

[4] = tested on: isolated guinea pig auricle; experiment: Maximum stimulation frequency test on isolated guinea pig auricle; conditions: Cavia porcellus; 10 mg/l; read-out: Δ% MFS (decrease of the maximum frequency followed)
Protocol: The maximum frequency test carried out studied the maximum stimulation frequency which can cause contraction of an isolated guinea pig auricle placed in a solution containing a derivative of the invention. The measurement was carried out before (control period) and then after introduction of the derivative into the solution.

[5] = tested on: ventricular extrasystoles in the dog; experiment: Harris test on the dog; type: in vivo; conditions: during the 2 hours following the injection
Protocol: By way of example, the number of ventricular extrasystoles per minute decreases by approximately 50% during the 2 hours following the injection of the product, in the case of the derivative described in Example 10. Moreover, the antiarrhythmic effect (myocardiac protection) increases with the size of the dose injected.

[6] = read-out: Prolongation of time of appearance of ventricular extrasystoles (ESV)
[7] = read-out: Prolongation of time of appearance of ventricular fibrillation (FV)
[8] = read-out: Prolongation of time of appearance of ventricular tachycardium (TV)

SMILES: Cc1c(-c2ccccc2)n[nH]c1OCCN1CCOCC1 [Example 4, 3-Phenyl-4-methyl-5-morpholinoethoxy-pyrazole]
- LD50 [1]: 750 mg/kg
- ED50 [2]: 46 mg/kg
- (dp/dt)l/p, percentage of variation (anesthetized dog; dose 1 mg/kg): +10%
- Cardiac flow, percentage of variation (anesthetized dog; dose 1 mg/kg): 0%
- Cardiac frequency, percentage of variation (anesthetized dog; dose 1 mg/kg): 0%
- Contraction force of the myocardium, percentage of variation (anesthetized dog; dose 1 mg/kg): +5%
- Systolic arterial pressure, percentage of variation (anesthetized dog; dose 1 mg/kg): 0%
- Systolic volume, percentage of variation (anesthetized dog; dose 1 mg/kg): 0%
- (dp/dt)l/p, percentage of variation (anesthetized dog; dose +3 mg/kg): +2%
- Cardiac flow, percentage of variation (anesthetized dog; dose +3 mg/kg): 0%
- Cardiac frequency, percentage of variation (anesthetized dog; dose +3 mg/kg): 0%
- Contraction force of the myocardium, percentage of variation (anesthetized dog; dose +3 mg/kg): +10%
- Systolic arterial pressure, percentage of variation (anesthetized dog; dose +3 mg/kg): 0%
- Systolic volume, percentage of variation (anesthetized dog; dose +3 mg/kg): 0%
- (dp/dt)l/p, percentage of variation (anesthetized dog; dose +10 mg/kg): -10%
- Cardiac flow, percentage of variation (anesthetized dog; dose +10 mg/kg): -23%
- Cardiac frequency, percentage of variation (anesthetized dog; dose +10 mg/kg): 0%
- Contraction force of the myocardium, percentage of variation (anesthetized dog; dose +10 mg/kg): +26%
- Systolic arterial pressure, percentage of variation (anesthetized dog; dose +10 mg/kg): 0%
- Systolic volume, percentage of variation (anesthetized dog; dose +10 mg/kg): -23%
- (dp/dt)l/p, percentage of variation (anesthetized dog; dose +20 mg/kg): -21%
- Cardiac flow, percentage of variation (anesthetized dog; dose +20 mg/kg): -34%
- Cardiac frequency, percentage of variation (anesthetized dog; dose +20 mg/kg): 0%
- Contraction force of the myocardium, percentage of variation (anesthetized dog; dose +20 mg/kg): +42%
- Systolic arterial pressure, percentage of variation (anesthetized dog; dose +20 mg/kg): 0%
- Systolic volume, percentage of variation (anesthetized dog; dose +20 mg/kg): -34%
- (dp/dt)l/p, percentage of variation (anesthetized dog; dose +40 mg/kg): -10%
- Cardiac flow, percentage of variation (anesthetized dog; dose +40 mg/kg): -11%
- Cardiac frequency, percentage of variation (anesthetized dog; dose +40 mg/kg): -18%
- Contraction force of the myocardium, percentage of variation (anesthetized dog; dose +40 mg/kg): +52%
- Systolic arterial pressure, percentage of variation (anesthetized dog; dose +40 mg/kg): 0%
- Systolic volume, percentage of variation (anesthetized dog; dose +40 mg/kg): -8%
- Cardiac frequency (result in words) (anesthetized dog): does not change
- Systolic arterial pressure (result in words) (anesthetized dog): does not change
- force of ventricular myocardiac contractions (result in words) (anesthetized dog): increases
- cumulative dose at which a 20% drop of cardiac flow is reached (anesthetized dog): greater than 4 mg/kg
- change in vivo at 10 mg/kg [3, 6]: 7%
- change in vivo at 10 mg/kg [3, 7]: 18%
- change in vivo at 10 mg/kg [3, 8]: 22%
- local anesthesia (rabbit cornea): 100%
- inhibition at 10 µg/mL [4]: 27%

SMILES: c1ccc(-c2cc(OCCN3CCCCC3)[nH]n2)cc1 [Example 9]
- LD50 [1]: 400 to 800 mg/kg
- ED50 [2]: 44 mg/kg
- Cardiac frequency (result in words) (anesthetized dog): drops moderately
- Systolic arterial pressure (result in words) (anesthetized dog): does not change
- force of ventricular myocardiac contractions (result in words) (anesthetized dog): does not vary significantly
- cumulative dose at which a 20% drop of cardiac flow is reached (anesthetized dog): greater than 4 mg/kg
- change in vivo at 10 mg/kg [3, 6]: 0%
- change in vivo at 10 mg/kg [3, 7]: 38%
- change in vivo at 10 mg/kg [3, 8]: 28%
- local anesthesia (rabbit cornea): 100%
- inhibition at 10 µg/mL [4]: 48%

SMILES: Clc1ccc(-c2cc(OCCN3CCOCC3)[nH]n2)cc1 [Example 10]
- LD50 [1]: 1000 mg/kg
- decrease of the number of ventricular extrasystoles per minute [5]: approximately 50%
- inhibition at 10 µg/mL [4]: 15%
